Source: ChEMBL document CHEMBL1201862, “PubChem BioAssay data set” (2004)
Active and inactive are the calls of the source.

Tests used:
[1] = biological target: Prothrombin (Homo sapiens, UniProt P00734); assay: Thrombin 1536 HTS Dose Response Confirmation. [Related pubchem assays: 1046 (Thrombin 1536 HTS; hits were confirmed in this assay)]; type: functional
[2] = P. falciparum 3D7-ScDHODH growth inhibitors, dose response, SYBR Green, dry powder samples (AID 1159570); type: functional, cell-based;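 note: parasite growth measured after 72 hours of compound exposure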
[3] = HepG2 cell cytotoxicity, dose response, cytotoxicity control, plate reader, dry powder samples (AID 1159569); type: functional, cell-based;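 note: inhibitor potency with signal falling toward the positive control level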
[4] = P. falciparum Dd2 growth inhibitors, dose response, SYBR Green, cherry-picked samples (AID 1159567); type: functional, cell-based
[5] = P. falciparum Dd2 growth inhibitors, dose response, SYBR Green, dry powder samples (AID 1159566); type: functional, cell-based;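 note: potency for growth inhibition with lower SYBR green DNA signal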
[6] = P. falciparum ATP4 D1247Y mutant growth inhibitors, dose response, NITD609-resistant line, SYBR Green, dry powder (AID 1159571); type: functional, cell-based;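 note: parasites synchronized at ring stage by sorbitol before testing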
[7] = A549 cell cytotoxicity, dose response, cytotoxicity control, plate reader, cherry-pick, antagonist series (AID 743412); type: functional, cell-based
[8] = LGR2 antagonists, dose response, cell-based, HEK293, CRE-luciferase reporter, cherry pick, set 2 (AID 743343); type: functional;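 note: transfected cells were stimulated with diluted bursicon conditioned medium after compound addition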
[9] = MC4R antagonists, dose response, counter-screen for LGR2 antagonist project, cell-based, plate reader, cherry pick (AID 743444); type: functional;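 note: transfected HEK 293 cells stimulated with alpha-MSH peptide; potency of inhibitors of the alpha-MSH evoked signal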
[10] = HEK293 cell cytotoxicity, dose response, cytotoxicity control, plate reader, cherry-picked samples (AID 743446); type: functional, cell-based
[11] = biological target: E3 ubiquitin-protein ligase Mdm2 (Homo sapiens, UniProt Q00987); assay: enhancers of MDM2-luciferase reporter signal, concentration-effect titration, project on inhibitors of MDM2 ubiquitin ligase, cellular assay, luminescent readout, 384-well plate format (AID 1394); type: functional;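 note: MDM2 E3 inhibitors raise luminescence so EC50 is for signal enhancement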
[12] = Luminescence Cell-Based Dose Response HTS to Identify Activators of Luciferase Translation or Activity in H4 […] Cells. [Related pubchem assays: 1829 (Project Summary), 1814 (Primary HTS)]; type: functional
[13] = system: H4; assay: Luminescence Cell-Based Dose Response HTS to Identify Activators of 5'UTR Stem-Loop Driven Prion Protein mRNA Translation in H4 Neuroglioblastoma Cells. [Related pubchem assays: 1829 (Project Summary), 1814 (Primary HTS)]; type: functional; conditions: Homo sapiens
[14] = biological target: Heat shock protein HSP 90-alpha (Homo sapiens, UniProt P07900); assay: Luminescence-based dose response biochemical high throughput screening assay for inhibitors of the Heat Shock Protein 90 (HSP90). [Related pubchem assays: 1831 (Summary AID.), 1846 (Confirmation screen.), 1789 (Primary screen.)]
[15] = NIH-3T3 fibroblast cytotoxicity, dose response, cytotoxicity control, cell-based, fluorescence, Alamar Blue, secondary assay (AID 2327); type: functional;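 note: NIH-3T3 mouse fibroblasts cultured with fluconazole at 8 µg/mL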
[16] = C. albicans growth with fluconazole, confirmation, fluorescence, retest (AID 2467); type: functional, cell-based
[17] = biological target: T1, Mannose-6-phosphate isomerase (Homo sapiens, UniProt P34949); assay: human PMI inhibitors, high substrate, primary screen, biochemical, fluorescence intensity, high mannose 6-phosphate (AID 1220)
T1 sequence (P34949 whole entry): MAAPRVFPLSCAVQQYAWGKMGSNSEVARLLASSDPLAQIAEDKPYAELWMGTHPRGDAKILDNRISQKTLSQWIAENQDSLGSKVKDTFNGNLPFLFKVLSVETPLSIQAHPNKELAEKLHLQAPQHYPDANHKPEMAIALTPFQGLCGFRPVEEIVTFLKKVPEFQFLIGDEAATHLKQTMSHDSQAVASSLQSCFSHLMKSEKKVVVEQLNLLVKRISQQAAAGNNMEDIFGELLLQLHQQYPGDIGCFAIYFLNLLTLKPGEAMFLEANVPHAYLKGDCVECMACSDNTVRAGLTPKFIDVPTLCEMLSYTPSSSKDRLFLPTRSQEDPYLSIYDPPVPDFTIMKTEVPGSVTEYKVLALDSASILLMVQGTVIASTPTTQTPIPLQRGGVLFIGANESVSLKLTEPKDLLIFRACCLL

[18] = biological target: T2, Polyadenylate-binding protein 1 (Homo sapiens, UniProt P11940); assay: PABP1 MLLE–PAM2 interaction inhibitors, dose response, miRNA deadenylation inhibitor project, biochemical, fluorescence polarization, Cy5-PAM2 peptide, secondary (AID 602260); type: functional; conditions: read-out: IC50_Mean
[19] = biological target: T2, Polyadenylate-binding protein 1; assay: PABP1 MLLE–PAM2 binding inhibitor potency, dose response, biochemical, fluorescence polarization, FITC-PAM2 peptide (AID 602259); type: functional; conditions: read-out: IC50_Mean
[20] = HepG2 cell cytotoxicity, dose response, cytotoxicity control, cherry-picked samples (AID 1159577); type: functional, cell-based
[21] = biological target: T3, Replicative DNA helicase DnaB (Mycobacterium tuberculosis, UniProt P9WMR3); assay: DnaB intein splicing inhibitors, dose response, biochemical, cell-free fluorescence (AID 449749); type: functional
T3 sequence (P9WMR3 whole entry): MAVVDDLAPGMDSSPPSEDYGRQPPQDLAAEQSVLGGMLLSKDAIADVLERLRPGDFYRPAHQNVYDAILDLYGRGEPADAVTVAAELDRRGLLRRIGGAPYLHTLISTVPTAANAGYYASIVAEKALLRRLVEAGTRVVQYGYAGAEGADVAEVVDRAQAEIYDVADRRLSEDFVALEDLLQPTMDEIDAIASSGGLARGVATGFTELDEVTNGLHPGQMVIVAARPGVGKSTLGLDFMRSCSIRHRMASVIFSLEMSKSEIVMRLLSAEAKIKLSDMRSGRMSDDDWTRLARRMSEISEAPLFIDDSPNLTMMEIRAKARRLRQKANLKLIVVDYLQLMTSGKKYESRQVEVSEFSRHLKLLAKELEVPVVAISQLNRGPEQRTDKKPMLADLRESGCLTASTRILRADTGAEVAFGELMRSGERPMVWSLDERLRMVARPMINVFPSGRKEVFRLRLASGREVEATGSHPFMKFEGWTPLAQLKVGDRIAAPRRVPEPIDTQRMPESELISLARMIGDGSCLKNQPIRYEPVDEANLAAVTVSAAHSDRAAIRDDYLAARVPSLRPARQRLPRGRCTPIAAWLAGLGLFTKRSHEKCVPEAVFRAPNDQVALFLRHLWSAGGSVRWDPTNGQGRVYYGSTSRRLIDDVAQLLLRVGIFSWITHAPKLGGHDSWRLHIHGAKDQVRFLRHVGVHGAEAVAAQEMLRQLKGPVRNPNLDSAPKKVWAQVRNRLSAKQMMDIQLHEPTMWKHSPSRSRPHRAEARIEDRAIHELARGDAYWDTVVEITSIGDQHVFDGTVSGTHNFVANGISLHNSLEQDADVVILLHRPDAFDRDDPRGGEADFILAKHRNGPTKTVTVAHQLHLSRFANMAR

[22] = biological target: T4, Protein RecA (Mycobacterium tuberculosis, UniProt P9WHJ3); assay: Fluorescence Cell-Free Homogeneous Dose Retest to Identify Inhibitors of RecA-Intein Splicing Activity. [Related pubchem assays (depositor defined):AID2097, AID2223, AID489010, AID492950]; type: functional
T4 sequence (P9WHJ3 whole entry): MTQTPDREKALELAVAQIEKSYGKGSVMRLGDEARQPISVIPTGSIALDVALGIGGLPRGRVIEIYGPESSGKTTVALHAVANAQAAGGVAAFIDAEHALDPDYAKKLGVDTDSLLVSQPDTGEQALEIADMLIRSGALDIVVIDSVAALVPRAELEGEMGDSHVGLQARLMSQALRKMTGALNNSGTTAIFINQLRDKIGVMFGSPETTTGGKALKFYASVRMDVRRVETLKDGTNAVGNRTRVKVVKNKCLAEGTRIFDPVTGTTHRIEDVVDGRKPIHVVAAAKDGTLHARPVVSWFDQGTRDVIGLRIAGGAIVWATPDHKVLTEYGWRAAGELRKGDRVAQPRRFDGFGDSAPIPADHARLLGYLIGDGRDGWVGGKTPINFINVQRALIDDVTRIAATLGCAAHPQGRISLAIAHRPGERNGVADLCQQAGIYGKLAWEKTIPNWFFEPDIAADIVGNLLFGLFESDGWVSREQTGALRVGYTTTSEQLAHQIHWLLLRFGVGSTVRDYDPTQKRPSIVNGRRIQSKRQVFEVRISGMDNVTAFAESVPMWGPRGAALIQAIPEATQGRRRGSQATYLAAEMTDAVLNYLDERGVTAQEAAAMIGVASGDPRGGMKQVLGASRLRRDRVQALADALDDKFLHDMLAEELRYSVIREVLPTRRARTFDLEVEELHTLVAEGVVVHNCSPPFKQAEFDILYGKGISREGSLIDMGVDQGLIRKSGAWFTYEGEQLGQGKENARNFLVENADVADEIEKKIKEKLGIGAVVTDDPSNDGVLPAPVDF

[23] = biological target: Paired box protein Pax-8 (Homo sapiens, UniProt Q06710); assay: inhibitors of PAX8-driven TPO luciferase reporter, dose response, RMG-I cells, cherry-pick (AID 687027); type: functional, cell-based;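 note: luciferase reporter driven by Pax8 target thyroperoxidase promoter measured by SteadyGlo luminescence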
[24] = non-specific cell cytotoxicity, dose response, cytotoxicity control for PAX8 inhibitor project, plate reader, dry powder samples (AID 743021); type: functional, cell-based
[25] = system: Streptococcus sp. 'group A'; assay: growth inhibition of control SK(-) GAS strain, dose response, counter-screen for streptokinase expression inhibitor project, luminescence, kanamycin, BacTiterGlo, confirmation (AID 1900); type: functional, organism-based
[26] = biological target: T5, Streptokinase A (Streptococcus pyogenes serotype M1, UniProt P10520); assay: S. pyogenes streptokinase expression inhibitors, potency, dose response, plasminogen activation absorbance, OD405 (AID 1914); type: functional, Streptococcus pyogenes M1 GAS;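 note: secreted streptokinase activity via plasminogen activation per viability signal from cell pellet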
T5 sequence (P10520 whole entry): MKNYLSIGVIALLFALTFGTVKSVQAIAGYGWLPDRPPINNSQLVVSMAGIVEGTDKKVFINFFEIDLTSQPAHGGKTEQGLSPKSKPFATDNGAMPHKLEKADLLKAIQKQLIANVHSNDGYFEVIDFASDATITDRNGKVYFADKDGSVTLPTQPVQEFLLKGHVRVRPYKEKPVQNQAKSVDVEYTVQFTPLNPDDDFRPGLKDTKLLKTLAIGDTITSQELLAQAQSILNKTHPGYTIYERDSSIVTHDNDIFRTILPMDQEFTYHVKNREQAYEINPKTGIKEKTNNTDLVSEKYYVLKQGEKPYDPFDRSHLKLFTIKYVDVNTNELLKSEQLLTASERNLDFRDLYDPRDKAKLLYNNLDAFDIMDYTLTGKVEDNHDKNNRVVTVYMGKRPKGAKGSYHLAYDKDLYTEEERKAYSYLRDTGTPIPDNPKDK

[27] = inhibitors of intracellular T. cruzi replication, confirmation, NIH3T3 host cells, beta-gal luminescence (AID 2044); type: functional, cell-based;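 note: intracellular parasites grown in NIH/3T3 mouse fibroblasts as host cells; luminescent beta-galactosidase reporter signal from transgenic T. cruzi replicating inside host cells; inhibitors lower the luminescence signal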
[28] = microbe, parasite or virus in culture; type: functional; conditions: Mycobacterium tuberculosis
[29] = cytotoxicity toward NIH3T3 fibroblasts, dose response, counter-screen, cell-based, ATP luminescence, mouse fibroblasts (AID 2010); type: functional;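 note: cells exposed to compound for about 90 hours before reading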
[30] = system: Streptococcus; assay: Group A Streptococcus viability loss, dose response, counter-screen for streptokinase expression inhibitor project, luminescence, BacTiterGlo (AID 1915); type: functional, organism-based;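 note: potency for reduction of bacterial viability or growth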
[31] = biological target: Disintegrin and metalloproteinase domain-containing protein 17 (Homo sapiens, UniProt P78536); assay: ADAM17 protease inhibitors, dose response, counter-screen for ADAM10 exosite inhibitor project, biochemical, quenched FRET substrate (AID 743253)
Disintegrin and metalloproteinase domain-containing protein 17, sequence (P78536 whole entry, the tested form may be a part): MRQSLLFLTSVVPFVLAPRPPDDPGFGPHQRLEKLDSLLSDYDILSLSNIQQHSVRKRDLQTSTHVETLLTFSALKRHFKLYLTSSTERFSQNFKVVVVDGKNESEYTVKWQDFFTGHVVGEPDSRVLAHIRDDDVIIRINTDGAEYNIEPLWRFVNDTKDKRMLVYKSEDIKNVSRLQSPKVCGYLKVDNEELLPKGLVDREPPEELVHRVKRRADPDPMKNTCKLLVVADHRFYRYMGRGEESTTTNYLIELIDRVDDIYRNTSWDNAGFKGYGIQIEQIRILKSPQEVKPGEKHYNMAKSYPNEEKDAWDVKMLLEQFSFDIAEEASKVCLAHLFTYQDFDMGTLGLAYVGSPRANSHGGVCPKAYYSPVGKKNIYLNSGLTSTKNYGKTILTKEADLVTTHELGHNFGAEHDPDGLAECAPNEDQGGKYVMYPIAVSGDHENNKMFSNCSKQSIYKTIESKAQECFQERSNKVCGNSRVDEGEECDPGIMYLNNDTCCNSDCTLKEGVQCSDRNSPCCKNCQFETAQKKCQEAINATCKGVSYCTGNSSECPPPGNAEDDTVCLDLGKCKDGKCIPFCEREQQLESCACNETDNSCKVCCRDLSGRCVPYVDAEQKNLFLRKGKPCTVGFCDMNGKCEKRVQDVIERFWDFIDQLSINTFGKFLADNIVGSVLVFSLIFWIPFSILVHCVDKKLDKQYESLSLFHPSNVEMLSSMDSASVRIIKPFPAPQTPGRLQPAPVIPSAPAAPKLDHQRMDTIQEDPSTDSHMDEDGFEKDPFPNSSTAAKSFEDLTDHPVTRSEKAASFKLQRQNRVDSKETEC

E3 ubiquitin-protein ligase Mdm2, sequence (Q00987 whole entry): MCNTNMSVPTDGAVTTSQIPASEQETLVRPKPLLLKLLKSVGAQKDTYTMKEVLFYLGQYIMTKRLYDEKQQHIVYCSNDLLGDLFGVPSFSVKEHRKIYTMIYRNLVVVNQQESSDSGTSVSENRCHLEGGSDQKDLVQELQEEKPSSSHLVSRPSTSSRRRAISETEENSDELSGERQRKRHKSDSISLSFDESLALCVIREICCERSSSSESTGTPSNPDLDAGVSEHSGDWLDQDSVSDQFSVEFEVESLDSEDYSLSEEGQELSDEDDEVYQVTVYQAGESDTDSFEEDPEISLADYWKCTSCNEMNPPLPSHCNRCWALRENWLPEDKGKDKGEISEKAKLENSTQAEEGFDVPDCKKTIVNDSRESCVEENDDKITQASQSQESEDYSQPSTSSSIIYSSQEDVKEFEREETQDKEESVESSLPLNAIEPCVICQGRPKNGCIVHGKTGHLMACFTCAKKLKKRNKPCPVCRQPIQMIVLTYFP
T2 sequence (P11940 whole entry): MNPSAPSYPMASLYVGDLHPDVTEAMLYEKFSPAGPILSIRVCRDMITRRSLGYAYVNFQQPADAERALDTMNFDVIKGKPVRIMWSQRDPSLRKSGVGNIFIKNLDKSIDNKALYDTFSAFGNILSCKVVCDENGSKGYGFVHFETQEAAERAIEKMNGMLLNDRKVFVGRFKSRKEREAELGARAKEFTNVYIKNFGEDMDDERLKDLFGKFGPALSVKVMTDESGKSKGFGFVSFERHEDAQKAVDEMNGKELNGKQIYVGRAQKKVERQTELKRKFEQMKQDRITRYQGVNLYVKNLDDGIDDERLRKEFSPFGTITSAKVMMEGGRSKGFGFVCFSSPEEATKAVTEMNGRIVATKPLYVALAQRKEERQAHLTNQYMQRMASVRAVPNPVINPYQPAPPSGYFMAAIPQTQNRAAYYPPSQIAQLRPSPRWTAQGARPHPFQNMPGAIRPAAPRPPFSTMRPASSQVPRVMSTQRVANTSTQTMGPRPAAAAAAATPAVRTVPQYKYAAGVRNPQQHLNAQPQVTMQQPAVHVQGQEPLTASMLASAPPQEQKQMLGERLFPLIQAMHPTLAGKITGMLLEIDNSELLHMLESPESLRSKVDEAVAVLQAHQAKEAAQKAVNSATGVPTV
Paired box protein Pax-8, sequence (Q06710 whole entry): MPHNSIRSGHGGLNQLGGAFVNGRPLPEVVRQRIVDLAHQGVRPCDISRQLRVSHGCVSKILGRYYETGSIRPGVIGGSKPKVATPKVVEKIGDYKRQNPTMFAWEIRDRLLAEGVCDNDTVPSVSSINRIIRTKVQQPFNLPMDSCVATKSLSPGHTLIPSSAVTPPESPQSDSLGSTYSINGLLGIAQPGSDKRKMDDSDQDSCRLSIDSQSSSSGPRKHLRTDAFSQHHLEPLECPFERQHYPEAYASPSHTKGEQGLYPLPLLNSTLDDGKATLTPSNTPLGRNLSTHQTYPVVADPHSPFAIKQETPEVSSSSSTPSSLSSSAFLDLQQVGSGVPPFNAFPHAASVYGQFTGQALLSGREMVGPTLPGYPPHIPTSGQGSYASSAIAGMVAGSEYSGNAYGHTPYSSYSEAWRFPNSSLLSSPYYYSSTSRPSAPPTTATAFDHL

CC(=O)c1c(OC(=O)c2ccco2)c2ccccc2n1C
IC50 [1]: 3.99 µM (active)

O=C(C1CCCC1)N1CC[C@@H]2[C@H]1c1cc(-c3cccc(F)c3)ccc1N[C@@H]2CO
AC50 [2]: 1.03 µM (active)
AC50 [3]: 19.9 µM (active)
AC50 [4]: 0.996 µM (active)
AC50 [5]: 0.641 µM (active)
AC50 [6]: 0.577 µM (active)

O=C(Nc1ccc(Cl)cc1Cl)c1ccc2c(c1)OCCO2
AC50 [7]: 42.4 µM (active)
AC50 [8]: 6.49 µM (active)
AC50 [9]: 12.9 µM (active)
AC50 [10]: > 52 µM (inactive)

Cc1nnc(SCc2nnc(-c3ccccc3Br)o2)n1-c1ccccc1
IC50 [1]: > 50 µM (not active)

Cc1cccc(Nc2nnc(SCC3CCCCO3)s2)c1 (stereo not drawn)
EC50 [11]: 11.2 µM (not active)
EC50 [12]: 27.2 µM (active)
EC50 [13]: 21.8 µM (active)

O=C(Cc1ccccc1)N1CCN(S(=O)(=O)c2ccc([N+](=O)[O-])cc2)CC1
IC50 [14]: 29.1 µM (not active)

CCOC(=O)N1CCN(Cc2ccc(O)c3ncccc23)CC1
EC50 [15]: > 150 µM (inactive)
EC50 [16]: > 38 µM (not active)
IC50 [17]: 10.6 µM (active)

COc1ccc(N(/N=C2\Sc3ccccc3C2=O)C(C)=O)cc1
IC50 [14]: 1.96 µM (active)

Cc1cccc(N2C(=O)/C(=C/N3CCN(C(=O)c4ccco4)CC3)C(=O)NC2=S)c1
IC50 [17]: > 50 µM (not active)

Oc1nc2cc3c(cc2cc1CN(Cc1nnnn1CC1CCCO1)C1CCCC1)OCO3 (stereo not drawn)
EC50 [11]: 47.2 µM (not active)
IC50 [18]: > 66 µM (inactive)
IC50 [19]: > 66 µM (inactive)

CO[C@@H]1CN(C)C(=O)c2cc(NC(=O)c3nc4ccccc4s3)ccc2OC[C@H](C)N(Cc2cccnc2)C[C@@H]1C
AC50 [4]: 5.35 µM (active)
AC50 [20]: 33.4 µM (active)

O=C(CCl)N(Cc1ccccc1)c1ccccc1
AC50 [21]: 18.4 µM (active)
EC50 [22]: 0.813 µM (active)
AC50 [23]: 3.95 µM (active)
AC50 [24]: 9.34 µM (active)

COc1ccccc1C#Cc1ccc2c(c1)[C@H]1NCC[C@H]1[C@@H](CO)N2
AC50 [2]: 3.54 µM (active)
AC50 [3]: 38.1 µM (active)
AC50 [4]: 2.45 µM (active)
AC50 [5]: 2.02 µM (active)
AC50 [6]: 3.13 µM (active)

COc1ccc(C#Cc2ccc([C@H]3[C@@H](CO)N4CCCCN(C(=O)Nc5ccccc5F)C[C@H]34)cc2)cc1
AC50 [4]: 1.02 µM (active)
AC50 [20]: 7 µM (active)

Cc1cc(C)c(CSc2nc(-c3ccc([N+](=O)[O-])cc3)c[nH]2)c(C)c1
EC50 [25]: 3.92 µM (active)
EC50 [26]: 10.3 µM (active)
EC50 [27]: 3.48 µM (active)
CC50 [28]: 22.3 µM (active)
EC50 [29]: > 60 µM (inconclusive)
EC50 [30]: 39.4 µM (active)
IC50 [31]: > 69.5 µM (inactive)
